Test results: the NIST ThermoML archive (doi:10.1016/j.jct.2015.10.018)
± gives the expanded uncertainty stated by the source.

Legend:
[1] = 298.15 K; 101.33 kPa; Liquid; Vibrating tube method
[2] = refractive index (Na D-line) (dimensionless); settings: 298.15 K; 101.33 kPa; Liquid; Standard Abbe refractometry

Row | mass density [1] [kg/m3] | refractive index [2] | Compound
1 | 773.88 ± 0.17 | 1.42356 ± 0.00033 | C1CCCCC1 [cyclohexane]
2 | 1102.03 ± 1.1 | 1.51452 ± 0.00051 | CCn1cc[n+](C)c1.N#CN=C=[N-] [1-ethyl-3-methylimidazolium dicyanamide]
3 | 679.57 ± 0.25 | 1.38529 ± 0.00037 | CCCCCCC [heptane]

Row | Compound | mass density [1] [kg/m3] | refractive index [2]
4 | Cc1ccccc1 [toluene] | 862.23 ± 0.13 | 1.49398 ± 0.00031
